Experimental data reported in patent publication US12391737B2, “Soluble NPY2 receptor agonists” (Boehringer Ingelheim International GmbH, priority 2020, dated 2025).

How the values were obtained:
[1] = Solubility determination; settings: for Sol6: pH 6; for Sol7: pH 7
Procedure, shortened: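 Sample: TFA-salt peptide at 10 mg/ml target in 0.1 M Na diphosphate, pH 6.4 or 7.0, shaken 2 h RT, filtered, diluted to 1 mg/ml.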

[2] = target: T1, Human Neuropeptide Y2 Receptor (Homo sapiens, UniProt P49146); experiment: Radioligand binding competition assay (RLB); settings: Table 3, 125I-PYY(1-36) competition; read-out: Ki
T1 construct: purchased CHEMICON HTS066M
T1 sequence (P49146 1-381): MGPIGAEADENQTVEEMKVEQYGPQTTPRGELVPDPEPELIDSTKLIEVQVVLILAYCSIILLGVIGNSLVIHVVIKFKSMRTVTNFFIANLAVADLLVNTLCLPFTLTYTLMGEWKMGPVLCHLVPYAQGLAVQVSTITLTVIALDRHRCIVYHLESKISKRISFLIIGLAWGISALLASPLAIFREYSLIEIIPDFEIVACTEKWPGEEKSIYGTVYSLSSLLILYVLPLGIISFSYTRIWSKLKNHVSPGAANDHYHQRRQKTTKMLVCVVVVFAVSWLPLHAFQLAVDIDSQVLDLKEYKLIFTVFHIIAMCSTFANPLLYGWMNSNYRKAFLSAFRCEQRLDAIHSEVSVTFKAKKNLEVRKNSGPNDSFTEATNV
Procedure, shortened: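 Filtration competition binding on membranes from cells expressing the receptor, 0.5 μg protein/well, in 50 mM HEPES, 5 mM MgCl2, 1 mM CaCl2, pH 7.4, with 0.2% ovalbumin. Incubation ran 2 h at room temperature, followed by GF/C filtration and scintillation counting. IC50 came from nonlinear sigmoidal fits.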

Sol6 [1] | Sol7 [1] | Ki [2] | SMILES
9.5 mg/mL | 9.8 mg/mL | 5.46 nM | CC(C)CC(=O)N[C@@H](C)C(=O)N1CCC[C@H]1C(=O)N[C@@H](CCC(=O)O)C(=O)N[C@@H](CCCCNC(=O)CCCCCNC(=O)CC[C@H](NC(=O)CCCCCCCCCCCCCCCCC(=O)O)C(=O)O)C(=O)N1CCC[C@H]1C(=O)N[C@@H](CCC(=O)O)C(=O)N[C@@H](CCC(=O)O)C(=O)N[C@@H](CC(=O)O)C(=O)N[C@@H](C)C(=O)N[C@H](C(=O)N1CCC[C@H]1C(=O)N[C@@H](CCC(=O)O)C(=O)N[C@@H](CCC(=O)O)C(=O)N[C@@H](CC(C)C)C(=O)N[C@@H](CCC(N)=O)C(=O)N[C@@H](CCCNC(=N)N)C(=O)N[C@@H](Cc1ccc(O)cc1)C(=O)N[C@@H](Cc1ccc(O)cc1)C(=O)N[C@H](C(=O)N[C@@H](CO)C(=O)N[C@@H](CC(C)C)C(=O)N[C@@H](CCCNC(=N)N)C(=O)N[C@@H](Cc1c[nH]cn1)C(=O)N[C@@H](Cc1ccc(O)cc1)C(=O)N[C@@H](Cc1ccc(O)cc1)C(=O)N[C@@H](CC(N)=O)C(=O)N[C@@H](Cc1c[nH]c2ccccc12)C(=O)N[C@@H](CC(C)C)C(=O)N[C@@H](CCC(N)=O)C(=O)N[C@@H](CCCNC(=N)N)C(=O)N[C@@H](CCC(N)=O)C(=O)N[C@@H](CCCNC(=N)N)C(=O)N[C@@H](Cc1ccc(O)cc1)C(N)=O)C(C)C)[C@@H](C)O [Compound 188, N{alpha-4}-(3-methylbutanoyl)-N{epsilon-7}-(6-[(4S)-4-carboxy-4-(17-carboxyheptadecanamido)butanamido]hexanoyl)-[4A,7K,9E,13T,18Q,22V,28Y,30W,31L,32Q]-hPYY(4-36)]
9.3 mg/mL | 9.2 mg/mL | 2.8 nM | CC[C@H](C)[C@H](NC(=O)[C@H](CCC(=O)O)NC(=O)[C@H](CCC(=O)O)NC(=O)[C@@H]1CCCN1C(=O)[C@@H](NC(=O)[C@H](C)NC(=O)[C@H](CC(=O)O)NC(=O)[C@H](CCC(=O)O)NC(=O)[C@H](CCC(=O)O)NC(=O)[C@@H]1CCCN1C(=O)[C@H](CCCCNC(=O)CCCCCNC(=O)CC[C@H](NC(=O)CCCCCCCCCCCCCCCCC(=O)O)C(=O)O)NC(=O)[C@H](CCC(=O)O)NC(=O)[C@@H]1CCCN1C(=O)[C@H](C)NC(=O)CC(C)C)[C@@H](C)O)C(=O)N[C@@H](CCC(N)=O)C(=O)N[C@@H](CCCNC(=N)N)C(=O)N[C@@H](Cc1ccc(O)cc1)C(=O)N[C@@H](Cc1ccc(O)cc1)C(=O)N[C@@H](CCC(N)=O)C(=O)N[C@@H](CO)C(=O)N[C@@H](CC(C)C)C(=O)N[C@@H](CCCNC(=N)N)C(=O)N[C@@H](Cc1c[nH]cn1)C(=O)N[C@@H](Cc1ccc(O)cc1)C(=O)N[C@@H](Cc1ccc(O)cc1)C(=O)N[C@@H](CC(N)=O)C(=O)N[C@@H](Cc1c[nH]c2ccccc12)C(=O)N[C@@H](CC(C)C)C(=O)N[C@H](C(=O)N[C@@H](CCCNC(=N)N)C(=O)N[C@@H](CCC(N)=O)C(=O)N[C@@H](CCCNC(=N)N)C(=O)N[C@@H](Cc1ccc(O)cc1)C(N)=O)[C@@H](C)O [Compound 164, N{alpha-4}-(3-methylbutanoyl)-N{epsilon-7}-(6-[(4S)-4-carboxy-4-(17-carboxyheptadecanamido)butanamido]hexanoyl)-[4A,7K,9E,13T,17I,18Q,22Q,28Y,30W,31L]-hPYY(4-36)]
